Source: patent US9260395B2, “Inhibitors of viral replication, their process of preparation and their therapeutical uses” (priority 2012, dated 2016)

Tested on: NL4-3 strain of HIV-1
Assay: Cyto-protection (CellTiter-Glo viability) assay of MT4 cells infected with NL4-3 virus; inhibition of HIV replication
Assay type: cell-based
Settings: Human immunodeficiency virus 1, NL43, 120 h; concentration leading to 50% of cyto-protection; MT4 cells infected with NL4-3 virus; 5 days incubation; CellTiter-Glo; read-out: EC50
Procedure: Preparation of Virus stock of the NL4-3 strain of HIV-1 (Adachi et al, J Virol, 1986, 59(2):284-91).
The virus was prepared as described in Lopez et al (Lopez et al, Proc Natl Acad Sci USA., 2006, 103(40):14947-52, by transfecting 2×10^6 293 T cells (CRL-1573, ATCC) with following modifications: 6 μg of NL4-3 proviral DNA molecular clone were mixed with Fugene 6 transfection reagent from Roche, and used according to manufacturer's instructions. Forty eight hours later, transfected cell supernatants were harvested, filtered through 0.45-μm-pore-size filters, quantified for HIV-1 p24 antigen by using a Innotest HIV antigen mAb assay (Ingen) according to manufacturer's instructions, and used in infection experiments.
Serial dilutions of compounds to be tested were prepared in complete RPMI medium from 10 mM DMSO stock solutions, and I in 96 well Falcon 353072 Microtest[…]distributed in a volume of 20™ tissue culture plate, in order to get 0.5% DMSO final concentration in each well, after the addition of infected cells. Control wells contained also 0.5% DMSO final concentration but no compound.
MT4 cells (from the NIH AIDS Research and Reference Reagent Program) in RPMI complete medium were counted (10×10^6 cells per well in Falcon 353047 Multiwell™ 24 well) and infected for 2 hours at 37°, at a multiplicity of infection (moi) of 0.0001-0.00001. Cells were then centrifuged 3 min at 3000 rpm, and washed two times in 1 ml PBS to remove viruses that have not entered in cells. Infected cells were resuspended in complete RPMI at 1.25×10^6 cells/ml and 80 μl of infected cells were distributed in each well containing compound to be tested or control wells. The plates were then incubated at 37° for 5 days.
Assay used to measure the inhibition of HIV replication by the compounds (according to Gregg S. Jones et al., Antimicrobial Agents and Chemotherapy, 2009, 53 (3): 1194-1203).
After 5 days of incubation, microplates were equilibrated to room temperature for 30 mn and then 50 μl of CellTiter-Glo reagent (Promega Biosciences, Inc., Madison Wis., USA) were added to each well. Cell lysis was carried out at room temperature during 10 min, 150μl of lysates were transferred in Packard Optiplate 96 well, and luminescence was read on a Fluoroskan (Thermo Scientific).
The EC50, or effective concentration 50, is the concentration of compound leading to 50% of cyto-protection in a Cell-Titer-Glo® viability assay based on MT4 cells infected with NL4-3 virus (table 1).

Q: With `Cn1nc(-c2cccs2)c(-c2cc(F)c3c(c2)CCCO3)c1C(OC(C)(C)C)C(=O)O` (stereo not drawn) [Example 42, 2-(tert-butoxy)-2-[4-(8-fluoro-3,4-dihydro-2H-1-benzopyran-6-yl)-1-methyl-3-(thiophen-2-yl)-1H-pyrazol-5-yl]acetic acid] as the compound, how does the EC50 read?
A: 1800 nM

Q: `Cn1nc(C2CCCCC2)c(-c2ccc3c(c2)CCCO3)c1C(OC(C)(C)C)C(=O)O` (stereo not drawn) [Example 20, 2-(tert-butoxy)-2-[3-cyclohexyl-4-(3,4-dihydro-2H-1-benzopyran-6-yl)-1-methyl-1H-pyrazol-5-yl]acetic acid] was tested. Which EC50 did it give?
A: 1400 nM

Q: With `C/C=C/c1nn(C)c(C(OC(C)(C)C)C(=O)O)c1-c1ccc2c(c1)CCCO2` (stereo not drawn) [Example 29, 2-(tert-butoxy)-2-[4-(3,4-dihydro-2H-1-benzopyran-6-yl)-1-methyl-3-[(1E)-prop-1-en-1-yl]-1H-pyrazol-5-yl]acetic acid] as the compound, how does the EC50 read?
A: 1400 nM

Q: How did the EC50 turn out when `CC(C)C1CC=C(c2c(-c3ccccc3)nn(C)c2C(OC(C)(C)C)C(=O)O)CC1` (stereo not drawn) [Example 41, 2-(tert-butoxy)-2-{1-methyl-3-phenyl-4-[4-(propan-2-yl)cyclohex-1-en-1-yl]-1H-pyrazol-5-yl}acetic acid] was run?
A: 6000 nM

Q: For `Cn1nc(-c2ccc(Cl)s2)c(-c2ccc3c(c2)CCCO3)c1C(OC(C)(C)C)C(=O)O` (stereo not drawn) [Example 36, 2-(tert-butoxy)-2-[3-(5-chlorothiophen-2-yl)-4-(3,4-dihydro-2H-1-benzopyran-6-yl)-1-methyl-1H-pyrazol-5-yl]acetic acid], which EC50 is on record?
A: 2700 nM

Q: How did the EC50 turn out when `Cn1nc(-c2ccccc2)c(-c2ccc3c(c2)CCCO3)c1C(OC(C)(C)C)C(=O)O` (stereo not drawn) [Example 2, 2-(tert-butoxy)-2-[4-(3,4-dihydro-2H-1-benzopyran-6-yl)-1-methyl-3-phenyl-1H-pyrazol-5-yl]acetic acid] was run?
A: 680 nM

Q: `CCCc1cc(-c2nn(C)c(C(OC(C)(C)C)C(=O)O)c2-c2ccc3c(c2)CCCO3)cs1` (stereo not drawn) [Example 11, 2-(tert-butoxy)-2-[4-(3,4-dihydro-2H-1-benzopyran-6-yl)-1-methyl-3-(5-propylthiophen-3-yl)-1H-pyrazol-5-yl]acetic acid] was tested. Which EC50 did it give?
A: 830 nM

Q: How did the EC50 turn out when `CC1C=C(c2nn(C)c(C(OC(C)(C)C)C(=O)O)c2-c2ccc3c(c2)CCCO3)CCC1` (stereo not drawn) [Example 17, 2-(tert-butoxy)-2-[4-(3,4-dihydro-2H-1-benzopyran-6-yl)-1-methyl-3-(3-methylcyclohex-1-en-1-yl)-1H-pyrazol-5-yl]acetic acid] was run?
A: 740 nM

Q: With `CCCc1nn(C)c(C(OC(C)(C)C)C(=O)O)c1-c1ccc2c(c1)CCCO2` (stereo not drawn) [Example 30, 2-(tert-butoxy)-2-[4-(3,4-dihydro-2H-1-benzopyran-6-yl)-1-methyl-3-propyl-1H-pyrazol-5-yl]acetic acid] as the compound, how does the EC50 read?
A: 32000 nM

Q: For `Cn1nc(-c2ccccn2)c(-c2ccc3c(c2)CCCO3)c1C(OC(C)(C)C)C(=O)O` (stereo not drawn) [Example 9, 2-(tert-butoxy)-2-[4-(3,4-dihydro-2H-1-benzopyran-6-yl)-1-methyl-3-(pyridin-2-yl)-1H-pyrazol-5-yl]acetic acid], which EC50 is on record?
A: 3700 nM

Q: How did the EC50 turn out when `Cn1nc(-c2ccsc2)c(-c2ccc3c(c2)CCCO3)c1C(OC(C)(C)C)C(=O)O` (stereo not drawn) [Example 4, 2-(tert-butoxy)-2-[4-(3,4-dihydro-2H-1-benzopyran-6-yl)-1-methyl-3-(thiophen-3-yl)-1H-pyrazol-5-yl]acetic acid] was run?
A: 280 nM

Q: `Cn1nc(C2=CCCC2)c(-c2ccc3c(c2)CCCO3)c1C(OC(C)(C)C)C(=O)O` (stereo not drawn) [Example 12, 2-(tert-butoxy)-2-[3-(cyclopent-1-en-1-yl)-4-(3,4-dihydro-2H-1-benzopyran-6-yl)-1-methyl-1H-pyrazol-5-yl]acetic acid] was tested. Which EC50 did it give?
A: 240 nM

Q: How did the EC50 turn out when `C=C(c1nn(C)c(C(OC(C)(C)C)C(=O)O)c1-c1ccc2c(c1)CCCO2)C1CCCC1` (stereo not drawn) [Example 23, 2-(tert-butoxy)-2-[3-(1-cyclopentylethenyl)-4-(3,4-dihydro-2H-1-benzopyran-6-yl)-1-methyl-1H-pyrazol-5-yl]acetic acid] was run?
A: 2000 nM

Q: Which EC50 does the source give for `Cn1nc(-c2ccncc2)c(C2=CCC(C)(C)CC2)c1C(OC(C)(C)C)C(=O)O` (stereo not drawn) [Example 39, 2-(tert-butoxy)-2-[4-(4,4-dimethylcyclohex-1-en-1-yl)-1-methyl-3-(pyridin-4-yl)-1H-pyrazol-5-yl]acetic acid] here?
A: 5700 nM

Q: How did the EC50 turn out when `CC(C)(C)OC(C(=O)O)c1c(-c2ccc3c(c2)CCCO3)c(-c2cccs2)nn1CC(F)(F)F` (stereo not drawn) [Example 34, 2-(tert-butoxy)-2-[4-(3,4-dihydro-2H-1-benzopyran-6-yl)-3-(thiophen-2-yl)-1-(2,2,2-trifluoroethyl)-1H-pyrazol-5-yl]acetic acid] was run?
A: 3500 nM

Q: Which EC50 does the source give for `Cn1nc(-c2cccs2)c(-c2ccc3c(c2)CCCO3)c1C(OC(C)(C)C)C(=O)O` (stereo not drawn) [Example 3, 2-(tert-butoxy)-2-[4-(3,4-dihydro-2H-1-benzopyran-6-yl)-1-methyl-3-(thiophen-2-yl)-1H-pyrazol-5-yl]acetic acid] here?
A: 290 nM

Q: How did the EC50 turn out when `Cn1nc(-c2ccsc2)c(C2=CCC(C)(C)CC2)c1C(OC(C)(C)C)C(=O)O` (stereo not drawn) [Example 5, 2-(tert-butoxy)-2-[4-(4,4-dimethylcyclohex-1-en-1-yl)-1-methyl-3-(thiophen-3-yl)-1H-pyrazol-5-yl]acetic acid] was run?
A: 270 nM

Q: `Cn1nc(/C=C/C2CC2)c(-c2ccc3c(c2)CCCO3)c1C(OC(C)(C)C)C(=O)O` (stereo not drawn) [Example 27, 2-(tert-butoxy)-2-{3-[(E)-2-cyclopropylethenyl]-4-(3,4-dihydro-2H-1-benzopyran-6-yl)-1-methyl-1H-pyrazol-5-yl}acetic acid] was tested. Which EC50 did it give?
A: 5300 nM

Q: For `Cn1nc(C2CCCC2)c(-c2ccc3c(c2)CCCO3)c1C(OC(C)(C)C)C(=O)O` (stereo not drawn) [Example 19, 2-(tert-butoxy)-2-[3-cyclopentyl-4-(3,4-dihydro-2H-1-benzopyran-6-yl)-1-methyl-1H-pyrazol-5-yl]acetic acid], which EC50 is on record?
A: 3900 nM

Q: For `Cn1nc(-c2cccs2)c(C2=CCC(C)(C)CC2)c1C(OC(C)(C)C)C(=O)O` (stereo not drawn) [Example 6, 2-(tert-butoxy)-2-[4-(4,4-dimethylcyclohex-1-en-1-yl)-1-methyl-3-(thiophen-2-yl)-1H-pyrazol-5-yl]acetic acid], which EC50 is on record?
A: 470 nM

Q: For `Cn1nc(-c2csc3ccccc23)c(-c2ccc3c(c2)CCCO3)c1C(OC(C)(C)C)C(=O)O` (stereo not drawn) [Example 38, 2-[3-benzo[b]thiophen-3-yl-4-(3,4-dihydro-2H-1-benzopyran-6-yl)-1-methyl-1H-pyrazol-5-yl]-2-(tert-butoxy)acetic acid], which EC50 is on record?
A: 2200 nM

Q: For `Cc1c(-c2c(-c3cccs3)nn(C)c2C(OC(C)(C)C)C(=O)O)cc(F)c2c1CCCO2` (stereo not drawn) [Example 10, 2-(tert-butoxy)-2-[4-(8-fluoro-5-methyl-3,4-dihydro-2H-1-benzopyran-6-yl)-1-methyl-3-(thiophen-2-yl)-1H-pyrazol-5-yl]acetic acid], which EC50 is on record?
A: 1100 nM

Q: `Cn1nc(-c2ccccc2)c(C2=CCC(C)(C)CC2)c1C(OC(C)(C)C)C(=O)O` (stereo not drawn) [Example 1, 2-(tert-butoxy)-2-[4-(4,4-dimethylcyclohex-1-en-1-yl)-1-methyl-3-phenyl-1H-pyrazol-5-yl]acetic acid] was tested. Which EC50 did it give?
A: 480 nM

Q: How did the EC50 turn out when `CC1CCC=C1c1nn(C)c(C(OC(C)(C)C)C(=O)O)c1-c1ccc2c(c1)CCCO2` (stereo not drawn) [Example 26, 2-(tert-butoxy)-2-[4-(3,4-dihydro-2H-1-benzopyran-6-yl)-1-methyl-3-(5-methylcyclopent-1-en-1-yl)-1H-pyrazol-5-yl]acetic acid] was run?
A: 630 nM

Q: With `Cc1c(-c2c(-c3cccs3)nn(C)c2C(OC(C)(C)C)C(=O)O)ccc2c1CCCO2` (stereo not drawn) [Example 7, 2-(tert-butoxy)-2-[1-methyl-4-(5-methyl-3,4-dihydro-2H-1-benzopyran-6-yl)-3-(thiophen-2-yl)-1H-pyrazol-5-yl]acetic acid] as the compound, how does the EC50 read?
A: 410 nM

Q: `CC1CCCC=C1c1nn(C)c(C(OC(C)(C)C)C(=O)O)c1-c1ccc2c(c1)CCCO2` (stereo not drawn) [Example 18, 2-(tert-butoxy)-2-[4-(3,4-dihydro-2H-1-benzopyran-6-yl)-1-methyl-3-(6-methylcyclohex-1-en-1-yl)-1H-pyrazol-5-yl]acetic acid] was tested. Which EC50 did it give?
A: 500 nM

Same assay, conditions: Human immunodeficiency virus 1, NL43, MT4, 120 h

Q: With `Cn1nc(C2=CC3CCC2C3)c(-c2ccc3c(c2)CCCO3)c1C(OC(C)(C)C)C(=O)O` (stereo not drawn) [Example 15, 2-(3-{bicyclo[2.2.1]hept-2-en-2-yl}-4-(3,4-dihydro-2H-1-benzopyran-6-yl)-1-methyl-1H-pyrazol-5-yl)-2-(tert-butoxy)acetic acid] as the compound, how does the EC50 read?
A: 550 nM
